Measurements reported in ChEMBL document CHEMBL1165903, “Design and synthesis of 1,4-dihydropyridine derivatives as BACE-1 inhibitors” (Eur J Med Chem, 2010).

Assays:
Beta-secretase 1 [1] = biological target: T1, Beta-secretase 1 (Homo sapiens, UniProt P56817); assay: Inhibition of BACE1 in human HEK293 cells transfected with pCDNA-neo-SEAP-APP assessed as secreted alkaline phosphatase after cleavage of beta-site of APP by fluorescence assay; type: cell-based
Beta-secretase 1 [2] = biological target: T1, Beta-secretase 1; assay: Inhibition of BACE1

T1 sequence (P56817 whole entry): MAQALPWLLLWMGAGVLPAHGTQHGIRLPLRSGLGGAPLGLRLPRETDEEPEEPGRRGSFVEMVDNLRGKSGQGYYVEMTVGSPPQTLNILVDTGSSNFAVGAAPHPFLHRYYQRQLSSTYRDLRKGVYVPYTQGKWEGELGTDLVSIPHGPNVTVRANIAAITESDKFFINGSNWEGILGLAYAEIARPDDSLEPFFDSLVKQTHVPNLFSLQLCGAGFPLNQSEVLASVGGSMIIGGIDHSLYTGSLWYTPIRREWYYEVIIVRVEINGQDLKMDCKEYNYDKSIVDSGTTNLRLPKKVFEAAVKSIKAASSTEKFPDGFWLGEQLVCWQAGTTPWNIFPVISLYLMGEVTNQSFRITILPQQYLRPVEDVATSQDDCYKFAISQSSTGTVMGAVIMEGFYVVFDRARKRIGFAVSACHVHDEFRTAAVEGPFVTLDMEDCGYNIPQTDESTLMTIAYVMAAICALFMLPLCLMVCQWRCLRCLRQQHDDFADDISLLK

Row | Structure (SMILES) | IC50 (Beta-secretase 1 [1]) [µM] | IC50 (Beta-secretase 1 [2]) [µM]
1 | CC(=O)OCCCN1C(C)=C(C(=O)N[C@@H](Cc2ccccc2)[C@H](O)CNC2CC2)C(C)C(C(=O)OCc2ccccc2)=C1C (stereo not given in full) | 26.9 | –
2 | CC(C)OC(=O)CN1C=C(C(=O)N[C@@H](Cc2ccccc2)[C@H](O)CNC2CC2)C(C)C(C(=O)OC(C)(C)C)=C1 (stereo not given in full) | 31.9 | –
3 | COC(=O)CN1C(C)=C(C(=O)NOCc2ccccc2)C(C)C(C(=O)N[C@@H](Cc2ccccc2)[C@H](O)CNC2CC2)=C1C (stereo not given in full) | 15.2 | –
4 | CC1=C(C(=O)N[C@@H](Cc2ccccc2)[C@H](O)CNC2CC2)C(C)C(C(=O)OCc2ccccc2)=C(C)N1CC(=O)N1CCOCC1 (stereo not given in full) | 28.4 | –
5 | CCCC1C(C(C)=O)=C(C)N(CC(=O)OC(C)C)C(C)=C1C(=O)N[C@@H](Cc1ccccc1)[C@H](O)CNC1CC1 (stereo not given in full) | 33.1 | –
6 | CCC1C(C(=O)NOCc2ccccc2)=C(C)N(S(C)(=O)=O)C(C)=C1C(=O)N[C@@H](Cc1ccccc1)[C@H](O)CNC1CC1 (stereo not given in full) | 9.5 | –
7 | CCCC1C(C(=O)N[C@@H](Cc2ccccc2)[C@H](O)CNc2cccc(OC)c2)=CN(CC(=O)OC(C)C)C=C1C(=O)N[C@H](C)c1ccccc1 (stereo not given in full) | 31.2 | –
8 | CC1=C(C(=O)N[C@@H](Cc2ccccc2)[C@H](O)CNC2CC2)C(C)C(C(=O)OCc2ccccc2)=C(C)N1CC(=O)N(C)C(C)C (stereo not given in full) | 28.2 | –
9 | CCCC1C(C(C)=O)=C(C)N(CC(=O)OC(C)C)C(C)=C1C(=O)N[C@@H](Cc1ccccc1)[C@H](O)CNc1cccc(F)c1 (stereo not given in full) | 27.1 | –
10 | CCNc1cc(C(=O)N[C@@H](Cc2ccccc2)[C@H](O)CNc2cccc(C(F)(F)F)c2)cc(N2CCCCS2(=O)=O)c1 | – | 0.005
11 | CC1=C(C(=O)NOCc2ccccc2)C(C)C(C(=O)N[C@@H](Cc2ccccc2)[C@H](O)CNC2CC2)=C(C)N1S(C)(=O)=O (stereo not given in full) | 14.9 | –
12 | CC1=C(C(=O)NOCc2ccccc2)C(C)C(C(=O)N[C@@H](Cc2ccccc2)[C@H](O)CNC2CC2)=C(C)N1CC(=O)OC(C)C (stereo not given in full) | 9 | –
13 | CC(C)OC(=O)CN1C=C(C(=O)N[C@@H](Cc2ccccc2)[C@H](O)CNC2CC2)C(C)C(C(=O)N[C@H](C)c2ccccc2)=C1 (stereo not given in full) | 32.8 | –
14 | CC1=C(C(=O)NOCc2ccccc2)C(C(C)C)C(C(=O)N[C@@H](Cc2ccccc2)[C@H](O)CNC2CC2)=C(C)N1S(C)(=O)=O (stereo not given in full) | 11 | –
15 | COc1cccc(CNC[C@@H](O)[C@H](Cc2ccccc2)NC(=O)C2=CN(CC(=O)OC(C)C)C(C)=C(C(C)=O)C2C)c1 (stereo not given in full) | 26.1 | –
16 | CCC1C(C(=O)N[C@@H](Cc2ccccc2)[C@H](O)CNC2CC2)=C(C)N(S(C)(=O)=O)C(C)=C1C(=O)N[C@H](C)c1ccccc1 (stereo not given in full) | 16.2 | –
17 | CC(=O)C1=C(C)N(CC(=O)OC(C)C)C(C)=C(C(=O)N[C@@H](Cc2ccccc2)[C@H](O)CNC2CC2)C1C (stereo not given in full) | 29.3 | –
18 | CCCC1C(C(C)=O)=C(C)N(CC(=O)OC(C)C)C(C)=C1C(=O)N[C@@H](Cc1ccccc1)[C@H](O)CNc1cccc(OC)c1 (stereo not given in full) | 26.6 | –
19 | CCCC1C(C(=O)N[C@@H](Cc2ccccc2)[C@H](O)CNc2cccc(OC)c2)=CN(CC(=O)OC(C)C)C=C1C(=O)OC(C)(C)C (stereo not given in full) | 30.4 | –
20 | CCCC1C(C(=O)NOCc2ccccc2)=C(C)N(S(C)(=O)=O)C(C)=C1C(=O)N[C@@H](Cc1ccccc1)[C@H](O)CNC1CC1 (stereo not given in full) | 8.1 | –
21 | CCOC(=O)CN1C(C)=C(C(=O)NOCc2ccccc2)C(C)C(C(=O)N[C@@H](Cc2ccccc2)[C@H](O)CNC2CC2)=C1C (stereo not given in full) | 15.5 | –
22 | CCCC1C(C(=O)N[C@@H](Cc2ccccc2)[C@H](O)CNC2CC2)=CN(CC(=O)OC(C)C)C=C1C(=O)N[C@H](C)c1ccccc1 (stereo not given in full) | 29.6 | –
23 | CC1=C(C(=O)NOCc2ccccc2)C(c2ccccc2)C(C(=O)N[C@@H](Cc2ccccc2)[C@H](O)CNC2CC2)=C(C)N1S(C)(=O)=O (stereo not given in full) | 21.4 | –
24 | CC(=O)C1=C(C)N(CC(=O)OC(C)C)C(C)=C(C(=O)N[C@@H](Cc2ccccc2)[C@H](O)CNc2cccc(F)c2)C1C (stereo not given in full) | 26.4 | –
25 | CC1=C(C(=O)OCc2ccccc2)C(C)C(C(=O)N[C@@H](Cc2ccccc2)[C@H](O)CNC2CC2)=CN1CC(=O)OC(C)C (stereo not given in full) | 16.1 | –
26 | CC1=C(C(=O)N[C@@H](Cc2ccccc2)[C@H](O)CNC2CC2)C(C)C(C(=O)N[C@H](C)c2ccccc2)=C(C)N1S(C)(=O)=O (stereo not given in full) | 16.1 | –
27 | CC(=O)C1=C(C)N(CC(=O)OC(C)C)C=C(C(=O)N[C@@H](Cc2ccccc2)[C@H](O)CNc2cccc(F)c2)C1C (stereo not given in full) | 29.3 | –
28 | CCCC1C(C(C)=O)=C(C)N(CC(=O)OC(C)C)C(C)=C1C(=O)N[C@@H](Cc1ccccc1)[C@H](O)CNCc1cccc(OC)c1 (stereo not given in full) | 23.2 | –
29 | CC1=C(C(=O)N[C@@H](Cc2ccccc2)[C@H](O)CNC2CC2)C(C)C(C(=O)OCc2ccccc2)=C(C)N1CC(=O)N(C)C (stereo not given in full) | 39.1 | –
30 | CCCC1C(C(=O)N[C@@H](Cc2ccccc2)[C@H](O)CNC2CC2)=CN(CC(=O)OC(C)C)C=C1C(=O)OC(C)(C)C (stereo not given in full) | 24.6 | –
